{"source": "patent US7902371B2", "about": "“(1S,5S)-3-(5,6-dichloropyridin-3-yl)-3,6-diazabicyclo[3.2.0]heptane benzenesulfonate” (Abbott Laboratories, priority 2004, dated 2011)", "assay_type_in_all_cases": "physicochemical", "key": {"[1]": {"test": "thermodynamic based polymorph screen", "conditions": "for new crystal forms / polymorphs detected: besylate suspended in different solvents, three months", "description": "A thermodynamic based polymorph screen was conducted with crystalline (1S,5S)-3-(5,6-dichloropyridin-3-yl)-3,6-diazabicyclo[3.2.0]heptane benzenesulfonate. The benzenesulfonate salt was suspended in different solvents including water, ethanol, acetonitrile, methanol, N,N-dimethylformamide, ethyl acetate, 1,4-dioxane, chloroform, pyridine, nitromethane, PEG 400 and […] water/methanol. […] This difference between the benzenesulfonate and 4-methylbenzenesulfonate salts is unexpected considering the structural similarities of the two acids. The lack of different physical forms is an advantage to chemical and physical processing operations."}, "[2]": {"test": "hygroscopicity (relative humidity adsorption/desorption isotherms)", "conditions": "relative to acetate, citrate, maleate, methanesulfonate, 4-methylbenzenesulfonate and sulfate salts, FIGS. 1-7", "description": "Relative humidity isotherms were collected using a VTI SGA-100 Symmetric Vapor Sorption Analyzer. About 2 to 30 mg of sample is added to the system. The relative humidity is held constant at each step until a constant weight equilibrium is achieved or a maximum of six hours per step."}, "[3]": {"test": "solid state stability at 40° C. in the dark at 75% relative humidity", "conditions": "75% RH", "description": "Crystalline (1S,5S)-3-(5,6-dichloropyridin-3-yl)-3,6-diazabicyclo[3.2.0]heptane benzenesulfonate was tested for solid state stability at 40° C. in the dark at 75% relative humidity."}, "[4]": {"test": "intrinsic dissolution rate at 37° C."}}, "data": [{"smiles": "Cc1ccc(S(=O)(=O)O)cc1.Clc1cc(N2C[C@@H]3CN[C@@H]3C2)cnc1Cl", "note": "[4-methylbenzenesulfonate salt, (1S,5S)-3-(5,6-dichloropyridin-3-yl)-3,6-diazabicyclo[3.2.0]heptane 4-methylbenzenesulfonate]", "values": [{"measurement": "unique crystal forms isolated/characterized", "setting": "[1]", "value": "three unique crystal forms"}, {"measurement": "new crystal forms / polymorphs detected", "setting": "[1]", "value": "multiple polymorphs were discovered"}]}, {"smiles": "Clc1cc(N2C[C@@H]3CN[C@@H]3C2)cnc1Cl.O=S(=O)(O)c1ccccc1", "note": "[(1S,5S)-3-(5,6-dichloropyridin-3-yl)-3,6-diazabicyclo[3.2.0]heptane Benzenesulfonate]", "values": [{"measurement": "unique crystal forms isolated/characterized", "setting": "[1]", "value": "only one"}, {"measurement": "new crystal forms / polymorphs detected", "setting": "[1]", "value": "No new crystal forms were detected"}, {"measurement": "hygroscopicity", "setting": "[2]", "value": "lower hygroscopicity relative to other salts"}, {"measurement": "% remaining", "setting": "[3]; 0 week", "value": "99.72 ± 0.56", "unit": "%"}, {"measurement": "% remaining", "setting": "[3]; 1 week", "value": "100.66 ± 0.51", "unit": "%"}, {"measurement": "% remaining", "setting": "[3]; 2 week", "value": "99.47 ± 1.72", "unit": "%"}, {"measurement": "% remaining", "setting": "[3]; 4 week", "value": "100.22 ± 0.59", "unit": "%"}, {"measurement": "% remaining", "setting": "[3]; 6 week", "value": "100.53 ± 0.20", "unit": "%"}, {"measurement": "% remaining", "setting": "[3]; 8 week", "value": "100.93 ± 0.37", "unit": "%"}, {"measurement": "% remaining", "setting": "[3]; 12 week", "value": "100.84 ± 0.47", "unit": "%"}, {"measurement": "intrinsic dissolution rate", "setting": "[4]; pH 1.0", "value": 8.5, "unit": "mg/min·cm^2"}, {"measurement": "intrinsic dissolution rate", "setting": "[4]; pH 6.8", "value": 10.1, "unit": "mg/min·cm^2"}]}, {"smiles": "O=C(O)[C@H](O)[C@@H](O)C(=O)O", "note": "[(L)-tartrate]", "values": [{"measurement": "new crystal forms / polymorphs detected", "setting": "[1]", "value": "multiple polymorphs were discovered"}]}, {"smiles": "Clc1cc(N2C[C@@H]3CN[C@@H]3C2)cnc1Cl.O=S(=O)(O)O", "note": "[sulfate, (1S,5S)-3-(5,6-dichloropyridin-3-yl)-3,6-diazabicyclo[3.2.0]heptane sulfate]", "values": [{"measurement": "new crystal forms / polymorphs detected", "setting": "[1]", "value": "multiple polymorphs were discovered"}]}]}
